Legend:
[1] = system: pCREB; experiment: Aβ-induced CREB shutoff (nuclear pCREB) in hippocampal primary neurons; format: cell-based, rat
Method: (§1) Hippocampal and cortical cultures were prepared from Wistar rat embryos (E18) of mixed sex as described previously (Spilker et al., 2016). Briefly, dissected were digested for 15 min with trypsin at 37° C. Neurons were plated on plastic 12-well dishes (Greiner) on glass coverslips coated with poly-L-lysine (Sigma-Aldrich) at a density of 60 000 cells/well in DMEM medium (Gibco, Thermo Fisher Scientific) supplemented with 10% FCS, 1× penicillin/streptomycin, and 2 mM glutamine. After 1 h incubation (at the 37° C., 5% CO2, 95% humidity) cells were kept in BrainPhys medium supplemented with 1% SM1 (Stemmcell Technologies), 0.5 mM Glutamine (Gibco) at 37° C., 5% CO2 and 95% humidity. […]
(§2) For quantitation of nuclear staining intensity (pCREB or CREB) somatic regions were sequentially scanned using the 63× objective (Leica) in both: Leica TCS SP8-STED and Leica TCS SP5 systems. […] Unprocessed images were analysed using Fiji/ImageJ software (Schindelin et al., 2012). For visualization of the quantified channel a fire look-up table (LUT) was used. Synaptic density was quantified in secondary dendrites using Fiji/ImageJ (Schindelin et al., 2012). […] Intensity of the GluA1 channel was measured in ROIs defined by a Shank3 mask as a readout for surface AMPAR expression.

[2] = system: hippocampal neurons; experiment: Aβ-induced synapse loss (synaptophysin/Shank3 puncta) in dissociated hippocampal neurons; format: cell-based, rat; conditions: 5 μM Nitarsone, 48 h, 500 nM Aβ1-42
Method: as §1, §2

[3] = format: in vivo, mouse; conditions: 50 mg/kg daily oral, treated versus control animals
Description: . For TBA2.1 mice (both sexes), treatment started at the age of 4 weeks. The animals were group housed and force fed for 4 weeks. […] Treatment in 5×FAD male mice started at the age of 12 weeks. Here, animals were single housed right away and given a choice between voluntary and forced feeding. […] During the course of the 7th week of treatment, animals were either subjected to perfusion to obtain their brains for subsequent immunohistochemistry or they were culled to obtained native brains for electrophysiological recordings.

For O=[N+]([O-])c1ccc([As](=O)(O)O)cc1 [Nitarsone, (4-nitrophenyl) arsonic acid], the “CREB shutoff induced by Aβ oligomers for 48 h” value ([1]; 5 µM co-application, 500 nM Aβ oligomers, 48 h) was “rescued CREB shutoff”, the “acute Aβ-induced CREB shutoff” value ([1]; 10 μM bath application, 30 min prior or 2 h after 500 nM Aβ for 2 h) was “prevented acute Aβ-induced CREB shutoff” and the Aβ-induced synapse loss [2] was “completely prevented”. For the same compound, the body weight [3] was “no effect on the body weight”.
